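Cells were grown in 96-well plates and exposed to each compound for 48 hours at five concentrations; endpoints were interpolated linearly between bracketing concentrations, or set to the highest concentration if not reached. GI50 = concentration required for 50% inhibition of growth. TGI: total growth inhibition.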
Key:
Assay in all cases: NCI-60 cell line screen, 48 h
OVCAR-3 ovarian = system: OVCAR-3 ovarian
SF-539 CNS = system: SF-539 CNS
SF-268 CNS = system: SF-268 CNS
EKVX NSCLC = system: EKVX NSCLC
TK-10 renal = system: TK-10 renal
RXF 393 renal = system: RXF 393 renal
SF-295 CNS = system: SF-295 CNS
SN12C renal = system: SN12C renal
ACHN renal = system: ACHN renal
NCI/ADR-RES ovarian = system: NCI/ADR-RES ovarian

Structure (SMILES)	TGI (OVCAR-3 ovarian)	TGI (SF-539 CNS)	TGI (SF-268 CNS)	TGI (EKVX NSCLC)	TGI (TK-10 renal)	TGI (RXF 393 renal)	TGI (SF-295 CNS)	TGI (SN12C renal)	TGI (ACHN renal)	TGI (NCI/ADR-RES ovarian)	GI50 (OVCAR-3 ovarian)	GI50 (SF-268 CNS)	GI50 (NCI/ADR-RES ovarian)	GI50 (TK-10 renal)	GI50 (RXF 393 renal)	GI50 (SF-295 CNS)	GI50 (SN12C renal)	GI50 (ACHN renal)	GI50 (SF-539 CNS)	GI50 (EKVX NSCLC)
CC1=CC(=O)NP(=O)(Oc2ccc(Cl)cc2)N1 (stereo not drawn)	> 100 µM	> 100 µM	> 100 µM	> 100 µM	> 100 µM	> 100 µM	> 100 µM	> 100 µM	> 100 µM											
N[C@H]1CCC[C@@H](O)C1O (stereo partly drawn)	> 100 µM	> 100 µM	> 100 µM	> 100 µM			> 100 µM	> 100 µM	> 100 µM	> 100 µM										
COC(=O)NC1(NC(=O)OC)NC(=O)c2ccccc2N1	> 100 µM	> 100 µM	> 100 µM	> 100 µM	> 100 µM		> 100 µM	> 100 µM	> 100 µM	> 100 µM										
CCOC(=O)c1ccc(N=Cc2ccc(N(CCC#N)S(=O)(=O)c3ccccc3)cc2C)cc1	> 100 µM	> 100 µM	> 100 µM	> 100 µM	> 100 µM		> 100 µM	> 100 µM												
Cc1nc(-n2nc(-c3ccccc3)cc2-c2ccccc2)sc1C(=O)CC(=O)C(=O)Nc1ccc(Cl)c(Cl)c1	> 100 µM	> 100 µM	> 100 µM	> 100 µM	> 100 µM	> 100 µM	> 100 µM	> 100 µM	> 100 µM											
CNc1c2ccccc2nc2occ(Cl)c12	75.2 µM		> 100 µM		56.7 µM	50.8 µM	88.2 µM	> 100 µM	70.5 µM	> 100 µM	24 µM	26.8 µM	30.1 µM	17.9 µM	19.7 µM	20.6 µM	52.6 µM	24 µM		
COc1ccc2nc3cc(Cl)ccc3c(Sc3ccc(N)cc3)c2c1	21.5 µM	27.9 µM	34.4 µM	25.4 µM	25.9 µM	24.7 µM	38.9 µM	24 µM	21.9 µM											
CC(=O)/C=C1\CC(=O)N(C)c2ccccc2N1	> 100 µM	> 100 µM	> 100 µM	> 100 µM	> 100 µM	> 100 µM	> 100 µM	> 100 µM												
COc1ccc2c(c1OC)C(=O)C2			> 100 µM	> 100 µM	> 100 µM	> 100 µM	> 100 µM	> 100 µM	> 100 µM											
Cn1c(=O)nc2n(-c3ccc(Br)cc3)c3ccccc3nc-2c1=O	7.6 µM	19.6 µM	31 µM	7.3 µM	32.8 µM	29 µM	17 µM	17.9 µM	13.2 µM											
Cc1nc2ccccc2c(=O)n1/N=C(\N=Nc1ccc(Cl)cc1)c1cccc(-c2ccco2)c1		98.4 µM	> 100 µM	> 100 µM	> 100 µM	76.8 µM	94.6 µM	> 100 µM	> 100 µM											
COc1ccccc1/C=C1\C(=O)N(C(=O)Cc2ccccc2)N=C1C	> 100 µM	> 100 µM	> 100 µM	> 100 µM	> 100 µM		> 100 µM	> 100 µM	> 100 µM											
COc1ccc(-n2cc(-c3cc(OC)c(OC)c(OC)c3)nc2SCc2cccc(C#N)c2)cc1OC	> 100 µM	> 100 µM	> 100 µM	> 100 µM	> 100 µM		> 100 µM	> 100 µM	> 100 µM	> 100 µM	65 µM	95.8 µM	> 100 µM	> 100 µM		> 100 µM	> 100 µM	> 100 µM	90.3 µM	> 100 µM
C=CC[P@]1(=O)O[C@H](c2ccccc2)C(C)N1C(C)C (stereo partly drawn)	> 100 µM	> 100 µM	> 100 µM	> 100 µM	> 100 µM	> 100 µM	> 100 µM	> 100 µM	> 100 µM											
O=C1NC(c2ccccc2)(c2ccccc2)C(=O)N1CCCCCCN1C(=O)NC(c2ccccc2)(c2ccccc2)C1=O	> 100 µM	81.3 µM	> 100 µM	> 100 µM	77 µM		81.3 µM	> 100 µM	> 100 µM											
O=S(=O)(F)Cc1ccccc1	> 100 µM	> 100 µM	> 100 µM	> 100 µM	> 100 µM		> 100 µM	> 100 µM	> 100 µM	> 100 µM										
COC1CCCc2c(OC(C)=O)ccc(OC(C)=O)c21 (stereo not drawn)	> 100 µM		> 100 µM		> 100 µM	> 100 µM		> 100 µM	> 100 µM											
COc1ccc2c(=O)c(-c3cc(OC)c(OC)cc3OC)coc2c1	15.3 µM	43.1 µM	> 100 µM	> 100 µM	> 100 µM	24.2 µM	12.5 µM	> 100 µM	> 100 µM											
O=C(O)/C=C/c1c2ccc(=O)c(O)c-2oc2c(O)c(O)ccc12	> 100 µM		> 100 µM	> 100 µM	> 100 µM	> 100 µM	55 µM	32.3 µM	> 100 µM	> 100 µM										
COc1ccc(-c2cc(=O)c3c(O)c(O)c(OC)cc3o2)cc1O	> 100 µM	> 100 µM	> 100 µM	> 100 µM	> 100 µM	> 100 µM	> 100 µM	> 100 µM	> 100 µM											
Cc1cccc(NC(=O)c2c(N)[n+]([O-])c3ccccc3[n+]2[O-])c1	29.1 µM	16.4 µM	22.8 µM	31.3 µM		13.3 µM	23.3 µM	17 µM	29.9 µM											
CC(C)(C)OC(=O)N(CCCCN(CCCn1c2c(c3ccccc3c1=O)C(=O)c1ccccc1-2)C(=O)OC(C)(C)C)CCCn1c2c(c3ccccc3c1=O)C(=O)c1ccccc1-2	> 100 µM	33.1 µM	> 100 µM		> 100 µM		> 100 µM	> 100 µM	> 100 µM	> 100 µM	69.6 µM	58.5 µM	30.1 µM	> 100 µM		14 µM	36 µM	14.3 µM	8.79 µM	

Source: PubChem BioAssay (NCI)
